Test results: US20210346329A1, “TCA CYCLE INTERMEDIATES AND METHODS OF USE THEREOF” (IMBRIA PHARMACEUTICALS, INC., priority 2018, published 2021)

Assay: Tissue distribution of radioactivity (whole-body sections, phosphor imaging, image densitometry)
Conditions: IV 10 mg/kg
Protocol: The plasma-time course, routes and rates of excretion, and tissue distribution of radioactivity following a single oral dose of ^14C-labeled citrate or single oral dose of ^14C-labeled succinate were analyzed in rats.
CD® rats were obtained from Charles River Laboratories. Animals were 9-11 weeks in age at beginning of study.
Animals given intravenous ^14C-succinate were not kept in a fasting state. ^14C-succinate was administered by tail vein injection.
At 0.5, 1, 2, 4, 8, and 24 hours post-dose, after terminal blood collections, euthanized animals were frozen in a hexane/dry ice bath and embedded in a 5% carboxymethylcellulose matrix according to MPI Research SOP IMG-23.
Sections of approximately 30 μm thickness were taken in the sagittal plane. Appropriate sections selected at various levels of interest in the block were collected to encompass the following tissues, organs, and biological fluids, where possible: adrenal gland, bladder and contents (urine), blood (cardiac), bone, bone marrow, brain, epididymis, eye, fat (brown), fat (white), heart, kidney, large intestine/cecum and contents, liver, lung, muscle, pancreas, prostate/uterus, salivary glands, skin, small intestine and contents, spleen, stomach and contents, testes/ovaries, thymus, thyroid, and mesenteric lymph nodes.
Quantification, relative to the calibration standards, was performed by image densitometry using MCID™ image analysis software according to MPI Research SOP IMG-24. A standard curve was constructed from the integrated response (MDC/mm^2) and the nominal concentrations of the [^14C]calibration standards. The concentrations of radioactivity were expressed as μCi/g and converted to μg or ng equivalents of [^14C]Test Article per gram sample (ng-eq/g or μg-eq/g) using the specific activity of administered [^14C]Test Article dose formulation. A lower limit of quantification (LLOQ) was applied to the data. The LLOQ was determined using the radioactive concentration of the lowest calibration standard used to generate a calibration curve divided by the specific activity of the dose formulation (μCi/mg). Artifacts, such as those produced by dislodged contents of the alimentary canal, were excluded from analysis during image analysis.

## O=C(O)CCC(=O)O [^14C-succinate]
Bone marrow, 0.5 Hour
  Radioactivity in tissue: 1314 ng Equivalents test article/g
Bone marrow, 1 Hour
  Radioactivity in tissue: 1750 ng Equivalents test article/g
Bone marrow, 2 Hours
  Radioactivity in tissue: 1398 ng Equivalents test article/g
Bone marrow, 4 Hours
  Radioactivity in tissue: 1419 ng Equivalents test article/g
Bone marrow, 8 Hours
  Radioactivity in tissue: 1019 ng Equivalents test article/g
Bone marrow, 24 Hours
  Radioactivity in tissue: 769 ng Equivalents test article/g
Bone, 0.5 Hour
  Radioactivity in tissue: 3128 ng Equivalents test article/g
Bone, 1 Hour
  Radioactivity in tissue: 3200 ng Equivalents test article/g
Bone, 2 Hours
  Radioactivity in tissue: 1989 ng Equivalents test article/g
Bone, 4 Hours
  Radioactivity in tissue: 2330 ng Equivalents test article/g
Bone, 8 Hours
  Radioactivity in tissue: 2042 ng Equivalents test article/g
Bone, 24 Hours
  Radioactivity in tissue: 1322 ng Equivalents test article/g
Cecum contents, 0.5 Hour
  Radioactivity in tissue: 540 ng Equivalents test article/g
Cecum contents, 1 Hour
  Radioactivity in tissue: 882 ng Equivalents test article/g
Cecum contents, 2 Hours
  Radioactivity in tissue: 757 ng Equivalents test article/g
Cecum contents, 4 Hours
  Radioactivity in tissue: 750 ng Equivalents test article/g
Cecum contents, 8 Hours
  Radioactivity in tissue: 806 ng Equivalents test article/g
Cecum contents, 24 Hours
  Radioactivity in tissue: BLQ (BLQ: Below limit of quantitation (<320 ng equivalents test article/g).)
Cecum, 0.5 Hour
  Radioactivity in tissue: BLQ (BLQ: Below limit of quantitation (<320 ng equivalents test article/g).)
Cecum, 1 Hour
  Radioactivity in tissue: BLQ (BLQ: Below limit of quantitation (<320 ng equivalents test article/g).)
Cecum, 2 Hours
  Radioactivity in tissue: BLQ (BLQ: Below limit of quantitation (<320 ng equivalents test article/g).)
Cecum, 4 Hours
  Radioactivity in tissue: BLQ (BLQ: Below limit of quantitation (<320 ng equivalents test article/g).)
Cecum, 8 Hours
  Radioactivity in tissue: BLQ (BLQ: Below limit of quantitation (<320 ng equivalents test article/g).)
Cecum, 24 Hours
  Radioactivity in tissue: BLQ (BLQ: Below limit of quantitation (<320 ng equivalents test article/g).)
Cerebellum, 0.5 Hour
  Radioactivity in tissue: 709 ng Equivalents test article/g
Cerebellum, 1 Hour
  Radioactivity in tissue: 847 ng Equivalents test article/g
Cerebellum, 2 Hours
  Radioactivity in tissue: 529 ng Equivalents test article/g
Cerebellum, 4 Hours
  Radioactivity in tissue: 503 ng Equivalents test article/g
Cerebellum, 8 Hours
  Radioactivity in tissue: BLQ (BLQ: Below limit of quantitation (<320 ng equivalents test article/g).)
Cerebellum, 24 Hours
  Radioactivity in tissue: BLQ (BLQ: Below limit of quantitation (<320 ng equivalents test article/g).)
Cerebrum, 0.5 Hour
  Radioactivity in tissue: 596 ng Equivalents test article/g
Cerebrum, 1 Hour
  Radioactivity in tissue: 853 ng Equivalents test article/g
Cerebrum, 2 Hours
  Radioactivity in tissue: 477 ng Equivalents test article/g
Cerebrum, 4 Hours
  Radioactivity in tissue: 543 ng Equivalents test article/g
Cerebrum, 8 Hours
  Radioactivity in tissue: 348 ng Equivalents test article/g
Cerebrum, 24 Hours
  Radioactivity in tissue: BLQ (BLQ: Below limit of quantitation (<320 ng equivalents test article/g).)
Epididymis, 0.5 Hour
  Radioactivity in tissue: 699 ng Equivalents test article/g
Epididymis, 1 Hour
  Radioactivity in tissue: 785 ng Equivalents test article/g
Epididymis, 2 Hours
  Radioactivity in tissue: 442 ng Equivalents test article/g
Epididymis, 4 Hours
  Radioactivity in tissue: BLQ (BLQ: Below limit of quantitation (<320 ng equivalents test article/g).)
Epididymis, 8 Hours
  Radioactivity in tissue: BLQ (BLQ: Below limit of quantitation (<320 ng equivalents test article/g).)
Epididymis, 24 Hours
  Radioactivity in tissue: BLQ (BLQ: Below limit of quantitation (<320 ng equivalents test article/g).)
Eye, 0.5 Hour
  Radioactivity in tissue: 569 ng Equivalents test article/g
Eye, 1 Hour
  Radioactivity in tissue: 584 ng Equivalents test article/g
Eye, 2 Hours
  Radioactivity in tissue: 371 ng Equivalents test article/g
Eye, 4 Hours
  Radioactivity in tissue: 413 ng Equivalents test article/g
Eye, 8 Hours
  Radioactivity in tissue: BLQ (BLQ: Below limit of quantitation (<320 ng equivalents test article/g).)
Eye, 24 Hours
  Radioactivity in tissue: BLQ (BLQ: Below limit of quantitation (<320 ng equivalents test article/g).)
Fat (brown), 0.5 Hour
  Radioactivity in tissue: 996 ng Equivalents test article/g
Fat (brown), 1 Hour
  Radioactivity in tissue: BLQ (BLQ: Below limit of quantitation (<320 ng equivalents test article/g).)
Fat (brown), 2 Hours
  Radioactivity in tissue: BLQ (BLQ: Below limit of quantitation (<320 ng equivalents test article/g).)
Fat (brown), 4 Hours
  Radioactivity in tissue: BLQ (BLQ: Below limit of quantitation (<320 ng equivalents test article/g).)
Fat (brown), 8 Hours
  Radioactivity in tissue: BLQ (BLQ: Below limit of quantitation (<320 ng equivalents test article/g).)
Fat (brown), 24 Hours
  Radioactivity in tissue: BLQ (BLQ: Below limit of quantitation (<320 ng equivalents test article/g).)
Fat (white), 0.5 Hour
  Radioactivity in tissue: BLQ (BLQ: Below limit of quantitation (<320 ng equivalents test article/g).)
Fat (white), 1 Hour
  Radioactivity in tissue: BLQ (BLQ: Below limit of quantitation (<320 ng equivalents test article/g).)
Fat (white), 2 Hours
  Radioactivity in tissue: BLQ (BLQ: Below limit of quantitation (<320 ng equivalents test article/g).)
Fat (white), 4 Hours
  Radioactivity in tissue: 348 ng Equivalents test article/g
Fat (white), 8 Hours
  Radioactivity in tissue: BLQ (BLQ: Below limit of quantitation (<320 ng equivalents test article/g).)
Fat (white), 24 Hours
  Radioactivity in tissue: BLQ (BLQ: Below limit of quantitation (<320 ng equivalents test article/g).)
Harderian gland, 0.5 Hour
  Radioactivity in tissue: BLQ (BLQ: Below limit of quantitation (<320 ng equivalents test article/g).)
Harderian gland, 1 Hour
  Radioactivity in tissue: 1983 ng Equivalents test article/g
Harderian gland, 2 Hours
  Radioactivity in tissue: 1478 ng Equivalents test article/g
Harderian gland, 4 Hours
  Radioactivity in tissue: BLQ (BLQ: Below limit of quantitation (<320 ng equivalents test article/g).)
Harderian gland, 8 Hours
  Radioactivity in tissue: BLQ (BLQ: Below limit of quantitation (<320 ng equivalents test article/g).)
Harderian gland, 24 Hours
  Radioactivity in tissue: BLQ (BLQ: Below limit of quantitation (<320 ng equivalents test article/g).)
Kidney, 0.5 Hour
  Radioactivity in tissue: 3154 ng Equivalents test article/g
Kidney, 1 Hour
  Radioactivity in tissue: 3060 ng Equivalents test article/g
Kidney, 2 Hours
  Radioactivity in tissue: 2704 ng Equivalents test article/g
Kidney, 4 Hours
  Radioactivity in tissue: 2075 ng Equivalents test article/g
Kidney, 8 Hours
  Radioactivity in tissue: 2031 ng Equivalents test article/g
Kidney, 24 Hours
  Radioactivity in tissue: 1120 ng Equivalents test article/g
Lacrimal gland (Ex-orbital), 0.5 Hour
  Radioactivity in tissue: BLQ (BLQ: Below limit of quantitation (<320 ng equivalents test article/g).)
Lacrimal gland (Ex-orbital), 1 Hour
  Radioactivity in tissue: 1557 ng Equivalents test article/g
Lacrimal gland (Ex-orbital), 2 Hours
  Radioactivity in tissue: 1655 ng Equivalents test article/g
Lacrimal gland (Ex-orbital), 4 Hours
  Radioactivity in tissue: 1993 ng Equivalents test article/g
Lacrimal gland (Ex-orbital), 8 Hours
  Radioactivity in tissue: 1388 ng Equivalents test article/g
Lacrimal gland (Ex-orbital), 24 Hours
  Radioactivity in tissue: BLQ (BLQ: Below limit of quantitation (<320 ng equivalents test article/g).)
Lacrimal gland (Intra-orbital), 0.5 Hour
  Radioactivity in tissue: BLQ (BLQ: Below limit of quantitation (<320 ng equivalents test article/g).)
Lacrimal gland (Intra-orbital), 1 Hour
  Radioactivity in tissue: 2323 ng Equivalents test article/g
Lacrimal gland (Intra-orbital), 2 Hours
  Radioactivity in tissue: 1355 ng Equivalents test article/g
Lacrimal gland (Intra-orbital), 4 Hours
  Radioactivity in tissue: BLQ (BLQ: Below limit of quantitation (<320 ng equivalents test article/g).)
Lacrimal gland (Intra-orbital), 8 Hours
  Radioactivity in tissue: BLQ (BLQ: Below limit of quantitation (<320 ng equivalents test article/g).)
Lacrimal gland (Intra-orbital), 24 Hours
  Radioactivity in tissue: BLQ (BLQ: Below limit of quantitation (<320 ng equivalents test article/g).)
Large intestinal contents, 0.5 Hour
  Radioactivity in tissue: BLQ (BLQ: Below limit of quantitation (<320 ng equivalents test article/g).)
Large intestinal contents, 1 Hour
  Radioactivity in tissue: 519 ng Equivalents test article/g
Large intestinal contents, 4 Hours
  Radioactivity in tissue: 810 ng Equivalents test article/g
Large intestinal contents, 8 Hours
  Radioactivity in tissue: 593 ng Equivalents test article/g
Large intestinal contents, 24 Hours
  Radioactivity in tissue: BLQ (BLQ: Below limit of quantitation (<320 ng equivalents test article/g).)
Large intestine, 0.5 Hour
  Radioactivity in tissue: BLQ (BLQ: Below limit of quantitation (<320 ng equivalents test article/g).)
Large intestine, 1 Hour
  Radioactivity in tissue: 1787 ng Equivalents test article/g
Large intestine, 2 Hours
  Radioactivity in tissue: 1716 ng Equivalents test article/g
Large intestine, 4 Hours
  Radioactivity in tissue: 1361 ng Equivalents test article/g
Large intestine, 8 Hours
  Radioactivity in tissue: BLQ (BLQ: Below limit of quantitation (<320 ng equivalents test article/g).)
Large intestine, 24 Hours
  Radioactivity in tissue: BLQ (BLQ: Below limit of quantitation (<320 ng equivalents test article/g).)
Liver, 0.5 Hour
  Radioactivity in tissue: 2431 ng Equivalents test article/g
Liver, 1 Hour
  Radioactivity in tissue: 3607 ng Equivalents test article/g
Liver, 2 Hours
  Radioactivity in tissue: 2005 ng Equivalents test article/g
Liver, 4 Hours
  Radioactivity in tissue: 1561 ng Equivalents test article/g
Liver, 8 Hours
  Radioactivity in tissue: 1190 ng Equivalents test article/g
